# From US20110312945A1, “CRTH2 MODULATORS” (priority 2008, published 2011)
# Assays:
# CRTH2 [1] = target: T1, CRTH2 (Homo sapiens, UniProt Q9Y5Y4); experiment: DPBS CD11b Antagonist Assay; type: cell-based; conditions: polymorphonuclear cells in PBS, eosinophil CD11b expression, challenge with 15R-Methyl-PGD2 (10 nM)
# T1 construct: polymorphonuclear cells (0.5 ml; 10^6/ml cells) in PBS containing 0.9 mM CaCl2 and 0.5 mM MgCl2; endogenous in cells; host or cells: polymorphonuclear cells (eosinophils gated by flow cytometry)
# T1 sequence (Q9Y5Y4 1-395): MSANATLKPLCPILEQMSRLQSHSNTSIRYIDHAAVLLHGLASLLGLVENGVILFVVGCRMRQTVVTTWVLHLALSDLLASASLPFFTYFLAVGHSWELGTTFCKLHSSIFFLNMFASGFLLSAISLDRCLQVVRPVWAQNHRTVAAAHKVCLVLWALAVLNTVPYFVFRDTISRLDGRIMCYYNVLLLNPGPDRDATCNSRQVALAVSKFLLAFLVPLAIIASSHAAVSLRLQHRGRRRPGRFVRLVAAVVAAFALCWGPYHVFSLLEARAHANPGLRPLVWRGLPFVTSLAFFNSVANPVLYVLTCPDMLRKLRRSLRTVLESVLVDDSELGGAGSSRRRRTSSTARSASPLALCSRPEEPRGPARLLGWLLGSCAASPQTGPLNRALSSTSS
# Protocol: DPBS CD11b Antagonist Assay. The potential CRTH2 antagonist activity of certain compounds was tested using a CD11b expression assay using essentially the method described by Monneret et al. (J Pharmacol Exp Ther 304:349-55, 2003). Briefly, polymorphonuclear cells (0.5 ml; 10^6/ml cells) in PBS containing 0.9 mM CaCl2 and 0.5 mM MgCl2) were preincubated with various concentrations of test compounds at room temperature for 10 minutes before they were challenged with the agonist 15R-Methyl-PGD2 (10 nM). The incubations were terminated by the addition of ice-cold FACSFlow (BD Biosciences; Cat# 342003) and centrifugation (400 g for 5 minutes at 4° C.). The cells were then incubated for 30 minutes at 4° C. with a mixture of PE-labeled mouse anti-human VLA-4 (5 μl; BD Biosciences) and FITC-labeled mouse anti-human CD11b (10 μl; Beckman Coulter). The cells were then incubated with Optilyse C (0.25 ml; Beckman Coulter) for 15 minutes, centrifuged, and then fixed in PBS (0.4 ml; calcium and magnesium free) containing 1% formaldehyde. The distribution of fluorescence intensities among 60,000 cells was measured by flow cytometry. Eosinophils were gated out on the basis of their granularity (high side scatter) and labeling with VLA-4 (PE fluorescence). CD11b was then measured in the eosinophil region on the basis of fluorescence due to FITC. All data were corrected for the value obtained for the corresponding isotope control antibody.
# CRTH2 [2] = target: T1, CRTH2; experiment: Human Whole Blood CD11b Antagonist Assay; type: cell-based; conditions: eosinophil CD11b expression, challenge with 15R-Methyl-PGD2 (10 nM)
# Protocol: Human Whole Blood CD11b Antagonist Assay (modified from Nicholson, et al. Pulmonary Pharmacology and Therapeutics: 20 (2007); 52-59). The potential CRTH2 antagonist activity of certain compounds was tested in human whole blood using an assay that tests the ability of the compounds to block the CD11b expression in eosinophils by 15-R-methyl-PGD2. A CRTH2 antagonist should block CD11b expression by subsequently added 15-Methyl-PGD2. Human whole blood (200 μL) was incubated at 37° C. for 10 minutes in the presence of various concentrations of test compounds before being challenged with the agonist 15R-Methyl-PGD2 (10 nM). Reactions were terminated by the addition of ice-cold PBS+0.5% BSA+2 mMEDTA (1 mL) and centrifugation (300×g for 5 minutes at 4° C.) Cells were then incubated at 4° C. for 10 min in the presence of human IgG. Cells were then incubated for 30-45 min with a mixture of PE-Cy5-labeled mouse anti-human CD16 (10 ul; BD Biosciences) and FITC-labeled mouse anti-human CD11b (10 μL; Beckman Coulter.) After rinsing (1 mL ice-cold PBS+0.5% BSA+2 mMEDTA), red blood cells were lysed by the addition of 1 mL ice-cold H2O to the cell pellet for 30 sec-1 min immediately followed by the addition of 3.5% NaCl (300 μL.) Cells were then rinsed (2x−1 ml ice cold PBS+0.5% BSA+2 mMEDTA) and fixed in PBS containing 1% formaldehyde. The distribution of fluorescence intensities was measured by flow cytometry. Eosinophils were gated out on the basis of their granularity (high side scatter) and absence of CD-16. CD11b was then measured on this eosinophil population on the basis of fluorescence due to FITC.
# [3] = system: DK-PGD2-induced systemic eosinophilia; experiment: DK-PGD2-Induced Systemic Eosinophilia in Rats; type: in vivo; conditions: Rattus norvegicus, Eosinophil; female Sprague-Dawley rats, oral dosing 30 min before intracardiac 10 μg DK-PGD2, blood eosinophils at 60 min
# Protocol: DK-PGD2-Induced Systemic Eosinophilia in Rats. Female Sprague-Dawley rats (175-250 g) were dosed orally with test compound (or vehicle). Thirty minutes after dosing, animals were anaesthetized with isoflurane. Following induction of anaesthesia, animals received an intracardiac injection of 10 μg DK-PGD2 in 0.3 ml heparinized (10 U/ml) saline. Control animals received an injection of 0.3 ml heparinized saline. Sixty minutes after the intracardiac injection, animals were again anesthetized with isoflurane and a blood sample was drawn from the abdominal aorta (into heparin) while the rat was anaesthetized but not dead. An aliquot of blood (500 μL) was mixed with an equal volume of 4% dextran (mw 500,000) and the erythrocytes were allowed to settle. A cytospin preparation was made from the resulting leukocyte rich fraction (top) and the cytospin was fixed and stained with Diff-Quick Stain kit (Dade Behring Inc, Newark, Del.). An aliquot of the leukocyte rich fraction was taken for total leukocyte count using flow cytometer (Guava EasyCyte Mini system). Differential leukocyte counts were obtained from the cytospin preparations. Blood eosinophil numbers were determined from the total leukocyte count and the percentage eosinophils.
IC50 (CRTH2 [1]),IC50 (CRTH2 [2]),Structure (SMILES),ED50 [3]
< 5 nM,5 to 100 nM,"Cc1c(Cc2ccc(S(=O)(=O)N3CCCC3)cc2)c2c(n1CC(=O)O)CCCC2 [Example I-1, 2-(2-Methyl-3-(4-(pyrrolidin-1-ylsulfonyl)benzyl)-4,5,6,7-tetrahydro-1H-indol-1-yl)acetic acid]",1 to 10 mg/kg
< 5 nM,100 to 500 nM,"Cc1c(Cc2ccc(S(=O)(=O)NC3CCCCC3)cc2)c2c(n1CC(=O)O)CCCC2 [Example I-2, 2-(3-(4-(N-Cyclohexylsulfamoyl)benzyl)-2-methyl-4,5,6,7-tetrahydro-1H-indol-1-yl)acetic acid]",1 to 10 mg/kg
< 5 nM,5 to 100 nM,"Cc1c(Cc2ccc(S(=O)(=O)N3CCCC3)cc2)c2c(n1CC(=O)O)CCC(C)(C)C2 [Example I-4, 2-(2,5,5-Trimethyl-3-(4-(pyrrolidin-1-ylsulfonyl)benzyl)-4,5,6,7-tetrahydro-1H-indol-1-yl)acetic acid]",< 1 mg/kg
< 5 nM,100 to 500 nM,"Cc1c(Cc2ccc(S(=O)(=O)N3CCOCC3)cc2)c2c(n1CC(=O)O)CCC(C)(C)C2 [Example I-11, 2-(2,5,5-Trimethyl-3-(4-(morpholinosulfonyl)benzyl)-4,5,6,7-tetrahydro-1H-indol-1-yl)acetic acid]",< 1 mg/kg
< 5 nM,5 to 100 nM,"Cc1c(Cc2ccccc2S(=O)(=O)N2CCOCC2)c2c(n1CC(=O)O)CCC(C)(C)C2 [Example I-17, 2-(2,5,5-Trimethyl-3-(2-(morpholinosulfonyl)benzyl)-4,5,6,7-tetrahydro-1H-indol-1-yl)acetic acid]",< 1 mg/kg
5 to 100 nM,–,"Cc1c(Cc2ccc(S(=O)(=O)N3CCCC3)cc2)c2c(n1CC(=O)O)CCC2 [Example I-19, 2-(2-Methyl-3-(4-(pyrrolidin-1-ylsulfonyl)benzyl)-5,6-dihydrocyclopenta[b]pyrrol-1(4H)-yl)acetic acid]",< 1 mg/kg
5 to 100 nM,5 to 100 nM,"Cc1c(Cc2ccc(S(=O)(=O)N3CCCC3)cc2)c2c(n1CC(=O)O)CCCCC2 [Example I-20, 2-(2-Methyl-3-(4-(pyrrolidin-1-ylsulfonyl)benzyl)-5,6,7,8-tetrahydrocyclohepta[b]pyrrol-1(4H)-yl)acetic acid]",< 1 mg/kg
5 to 100 nM,100 to 500 nM,"Cc1c(Cc2ccccc2S(=O)(=O)N2CCOCC2)c2c(n1CC(=O)O)CCCCC2 [Example I-21, 2-(2-Methyl-3-(2-(morpholinosulfonyl)benzyl)-5,6,7,8-tetrahydrocyclohepta[b]pyrrol-1(4H)-yl)acetic acid]",< 1 mg/kg
5 to 100 nM,–,"Cc1c(Cc2ccccc2S(=O)(=O)N2CCCC2)c2c(n1CC(=O)O)CCCCC2 [Example I-22, 2-(2-Methyl-3-(2-(pyrrolidin-1-ylsulfonyl)benzyl)-5,6,7,8-tetrahydrocyclohepta[b]pyrrol-1(4H)-yl)acetic acid]",< 1 mg/kg
–,–,"Cc1c(Cc2ccccc2S(=O)(=O)N2CCOCC2)c2c(n1CC(=O)O)CCC2 [Example I-23, 2-(2-methyl-3-(2-(morpholinosulfonyl)benzyl)-5,6-dihydrocyclopenta[b]pyrrol-1(4H)-yl)acetic acid]",1 to 10 mg/kg
< 5 nM,5 to 100 nM,"Cc1c(Cc2ccccc2S(=O)(=O)N2CCOCC2)c2c(n1CC(=O)O)CC(C)(C)CC2=O [Example I-40, 2-(2,6,6-trimethyl-3-(2-(morpholinosulfonyl)benzyl)-4-oxo-4,5,6,7-tetrahydro-1H-indol-1-yl)acetic acid]",< 1 mg/kg
< 5 nM,5 to 100 nM,"Cc1c(Cc2ccccc2S(=O)(=O)N2CCCC2)c2c(n1CC(=O)O)CC(C)(C)CC2=O [Example I-43, 2-(2,6,6-trimethyl-4-oxo-3-(2-(pyrrolidin-1-ylsulfonyl)benzyl)-4,5,6,7-tetrahydro-1H-indol-1-yl)acetic acid]",< 1 mg/kg
< 5 nM,–,"Cc1c(Cc2ccccc2S(=O)(=O)N(C)c2ccccc2)c2c(n1CC(=O)O)CC(C)(C)CC2=O [Example I-49, 2-(2,6,6-trimethyl-3-(2-(N-methyl-N-phenylsulfamoyl)benzyl)-4-oxo-4,5,6,7-tetrahydro-1H-indol-1-yl)acetic acid]",1 to 10 mg/kg
100 to 500 nM,–,"CCOC(=O)Cn1c(C)c(Cc2ccccc2S(=O)(=O)N2CCCC2)c2c1CC(C)(C)CC2=O [Example I-51, ethyl 2-(2,6,6-trimethyl-4-oxo-3-(2-(pyrrolidin-1-ylsulfonyl)benzyl)-4,5,6,7-tetrahydro-1H-indol-1-yl)acetate]",< 1 mg/kg
100 to 500 nM,–,"Cc1c(Cc2ccccc2S(=O)(=O)N2CCCC2)c2c(n1CC(=O)OC(C)C)CC(C)(C)CC2=O [Example I-55, isopropyl 2-(2,6,6-trimethyl-4-oxo-3-(2-(pyrrolidin-1-ylsulfonyl)benzyl)-4,5,6,7-tetrahydro-1H-indol-1-yl)acetate]",< 1 mg/kg
